In brackets after ≈: the same amount, converted by molar mass. Several values for one entry are separate records, joined by “and”; a condition that tells them apart may be missing. Identical values can stand only once. Like-named read-outs stand apart in the source and are kept apart here. Marks after values point to notes of the source that are not given here.
Columns and labels:
[1] = system: M. tuberculosis H37Ra (ATCC 25177); assay: MIC assay for Mycobacterium tuberculosis; type: cell-based; conditions: read-out: MtB H37Ra MIC
Procedure: (§1) The culture was then diluted with fresh medium until an OD600 of 0.01 was reached. […] The final DMSO concentration was maintained at 0.5%. […] Three rows were reserved for each compound. […] OD600 absorbance was recorded using SPECTRAMAX M5 (Molecular Devices). Data obtained from three independent experiments were analyzed using Excel.
as §1, with “SpectraMax” for “SPECTRAMAX”

MRSA BAA-1707 = assay: MIC, broth microdilution (CLSI); conditions: 16 to 18 hours at 37° C.; 0.10 = lowest concentration tested
MRSE 35984 = assay: MIC, broth microdilution (CLSI); conditions: 16 to 18 hours at 37° C.
VRE 700221 = assay: MIC, broth microdilution (CLSI); conditions: 16 to 18 hours at 37° C.
MRSA BAA-1707 biofilms = assay: Calgary Biofilm Device (CBD) assay, MBC/MBEC; conditions: for MRSA BAA-1707 MBEC / MRSA BAA-1707 MBC: CBD; for MRSA BAA-1707 MBEC: biofilm eradication; for MRSA BAA-1707 MBC: planktonic killing
MRSE 35984 biofilms = assay: Calgary Biofilm Device (CBD) assay, MBC/MBEC; conditions: for MRSE 35984 MBEC / MRSE 35984 MBC: CBD; for MRSE 35984 MBEC: biofilm eradication; for MRSE 35984 MBC: planktonic killing
VRE 700221 biofilms = assay: Calgary Biofilm Device (CBD) assay, MBC/MBEC; conditions: for VRE 700221 MBEC / VRE 700221 MBC: CBD; for VRE 700221 MBEC: biofilm eradication; for VRE 700221 MBC: planktonic killing
MRSA-2 biofilms = assay: Calgary Biofilm Device (CBD) assay, MBC/MBEC; conditions: for MRSA-2 MBEC: biofilm eradication; for MBC: Staphylococcus aureus, MRSA, read-out: MRSA-2 MBC
[2] = Mycobacterium tuberculosis, 168 h, seven days at 37° C.

Structure (SMILES)	IC50 (HeLa cells)	MRSA BAA-1707 MIC (MRSA BAA-1707)	MRSE 35984 MIC (MRSE 35984)	VRE 700221 MIC (VRE 700221)	Hemolysis at 200 μM (human red blood cells)	MRSA BAA-1707 MBC (MRSA BAA-1707 biofilms)	MRSE 35984 MBEC (MRSE 35984 biofilms)	MRSE 35984 MBC (MRSE 35984 biofilms)	further results
Cc1cc(C)c2nc3c(Br)ccc(O)c3nc2c1 [Compound 68A]	> 100 µM	4.69^a μM	2.35^a μM	9.38^a μM	–	–	–	–	MIC [1]: 50 µM (≈ 15.2 µg/mL)
Oc1ccc(Br)c2nc3cc(Cl)ccc3nc12 [Compound 69A]	> 100 µM	–	18.8^a μM	25 µM	–	–	–	–	MIC [1]: 6.25 µM (≈ 1.93 µg/mL)
COCCOCCOCC(=O)Oc1c(Br)cc(Br)c2nc3ccccc3nc12 [Compound 75A]	> 100 µM	0.59^a μM	–	3.13 µM	1.2%	18.8 µM	37.5 µM	9.38 µM	MRSA BAA-1707 MBEC (MRSA BAA-1707 biofilms): 75 µM
CS(=O)(=O)N1CCN(C(=O)Oc2c(Br)cc(Br)c3nc4ccccc4nc23)C1=O [Compound 76A]	> 100 µM	–	1.56 µM	3.13 µM	≤1%	37.5 µM	37.5 µM	18.8 µM	MRSA BAA-1707 MBEC (MRSA BAA-1707 biofilms): 75 µM; VRE 700221 MBEC (VRE 700221 biofilms): 9.38^a/9.38^a μM; VRE 700221 MBC (VRE 700221 biofilms): 9.38^a/9.38^a μM
COCCOCCOCCOCCOC(=O)Oc1c(Br)cc(Br)c2nc3cc(Cl)ccc3nc12 [Compound 77A]	> 100 µM	0.0005^a μM	0.1^b μM	0.1^b μM	1.1%	–	18.8 µM	9.38 µM	–
O=C(OCCOCCOCCOCCO)OCOc1c(Br)cc(Br)c2nc3ccccc3nc12 [Compound 82A]	> 100 µM	>100 µM	>100 µM	>100 µM	2.7%	–	–	–	–
O=C(OCCSSCCOC(=O)c1ccccc1)OCOc1c(Br)cc(Br)c2nc3ccccc3nc12 [Compound 85A]	> 100 µM	>100 µM	>100 µM	>100 µM	1.3%	–	–	–	–
CC1=C(C)C(=O)C(COC(=O)OCOc2c(Br)cc(Br)c3nc4ccccc4nc23)=C(C)C1=O [Compound 86A]	–	2.35^a μM	2.35^a μM	9.38^a μM	≤1%	25 µM	150 µM	37.5 µM	VRE 700221 MBEC (VRE 700221 biofilms): 9.38 µM; VRE 700221 MBC (VRE 700221 biofilms): 12.5 µM
CC1=C(C)C(=O)C(COC(=O)OCOc2c(Br)cc(Br)c3nc4cc(Cl)ccc4nc23)=C(C)C1=O [Compound 87A]	–	0.15^a μM	–	1.56 µM	–	6.25 µM	25 µM	12.5 µM	VRE 700221 MBEC (VRE 700221 biofilms): 3.13^c/3.13^c μM; VRE 700221 MBC (VRE 700221 biofilms): 3.13^c/3.13^c μM
C[C@H]1c2cccc(O)c2C(=O)C2=C(O)[C@]3(O)C(=O)C(C(N)=O)=C(O)[C@@H](N(C)C)[C@@H]3[C@@H](O)[C@@H]21 [Doxycycline]	–	–	–	–	–	–	–	–	MRSA-2 MBEC (MRSA-2 biofilms; CBD): 46.9 µM; MBC (MRSA-2 biofilms): 2 µM (≈ 0.889 µg/mL)
O=C(O)CN(CCN(CC(=O)O)CC(=O)O)CC(=O)O [EDTA, ethylenediaminetetraacetic acid, reference compound]	–	–	–	–	–	>2000 />2000 μM	> 2000 µM	1000 µM	MBC (MRSA BAA-1707 biofilms; Staphylococcus aureus, BAA1707|MRSA, read-out: MRSA BAA-1707 MBC, CBD, planktonic killing): > 2000 µM; MRSA-2 MBEC (MRSA-2 biofilms; CBD): 2000/>2000 μM; MBC (MRSA-2 biofilms): 2000 µM (≈ 584 µg/mL); MBC (MRSE 35984 biofilms; Staphylococcus epidermidis, MRSE, read-out: MRSE 35984 MBC): 1000 µM (≈ 292 µg/mL); MBC (VRE 700221 biofilms; Enterococcus, VRE, read-out: VRE 700221 MBC): > 2000 µM
Oc1c(Br)cc(Br)c2nc3ccc(Cl)cc3nc12 [HP 1-22]	–	–	–	–	–	–	–	–	MIC [1, 2]: 6.25 µM and 2.4 µg/mL; Hemolysis at 200 μM (human red blood cells; human, 1 h, 200 μM, pH 7.2): ≤1%
COCCOCCOCCOCCOC(=O)Oc1c(Br)cc(Br)c2nc3ccccc3nc12 [HP 1-24]	–	–	–	–	–	–	–	–	MIC [1, 2]: 25 µM (≈ 14.7 µg/mL); HeLa cell cytotoxicity at 100 μM (HeLa cells): no HeLa cell cytotoxicity; Hemolysis at 200 μM (human red blood cells; human, 1 h, 200 μM, pH 7.2): 2.4%
CC(=O)N[C@@H](CS)C(=O)O [NAC, reference compound]	–	–	–	–	–	–	>2000/>2000 μM	>2000/>2000 μM	MRSA-2 MBEC (MRSA-2 biofilms; CBD): >2000/>2000 μM; MRSA-2 MBC (MRSA-2 biofilms; CBD, planktonic killing): >2000/>2000 μM; VRE 700221 MBEC (VRE 700221 biofilms): >2000 />2000 μM; VRE 700221 MBC (VRE 700221 biofilms): >2000 />2000 μM
NC(=O)c1cnccn1 [Pyrazinamide]	–	–	–	–	–	–	–	–	MRSA-2 MBEC (MRSA-2 biofilms; CBD): >2000/>2000 μM; MBC (MRSA-2 biofilms): > 2000 µM
[H]/N=C(/N)N[C@H]1[C@H](O)[C@@H](O)[C@H](O[C@@H]2O[C@@H](C)[C@](O)(C=O)[C@H]2O[C@@H]2O[C@@H](CO)[C@H](O)[C@@H](O)[C@@H]2NC)[C@@H](N/C(N)=N\[H])[C@@H]1O [streptomycin, reference compound]	–	–	–	–	–	–	–	–	MIC ([1]; Mycobacterium tuberculosis, 168 h): 1.32 µM (≈ 0.768 µg/mL)

Reference: US11053205B2, “Phenazine derivatives as antimicrobial agents” (University of Florida Research Foundation, Incorporated, priority 2017, dated 2021)
